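Dose response: 5 concentrations. Exposure: 48 h. Format: 96-well plates. Endpoint: linear interpolation; highest concentration if not reached. Here, GI50 denotes the concentration required for 50% inhibition of growth.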 Activity calls are given as the source filed them. No stated cut-off is given here; in the data, active = GI50 up to about 1.1 µM and inactive = higher.
Tests used:
Experiment in all cases: NCI tumour cell line growth inhibition, 48 h
A549 = test system: A549
CAKI-1 = test system: CAKI-1
HCT-15 = test system: HCT-15
HT-29 = test system: HT-29
K562 = test system: K562
KM12 = test system: KM12
M14 = test system: M14
MOLT-4 = test system: MOLT-4
NCI-H226 = test system: NCI-H226
OVCAR-4 = test system: OVCAR-4
RXF 393 = test system: RXF 393
SF-295 = test system: SF-295
SF-539 = test system: SF-539
SK-OV-3 = test system: SK-OV-3
UACC-257 = test system: UACC-257
UACC-62 = test system: UACC-62
UO-31 = test system: UO-31
RPMI-8226 = test system: RPMI-8226
U-251 = test system: U-251

SMILES	GI50 (A549)	GI50 (CAKI-1)	GI50 (HCT-15)	GI50 (HT-29)	GI50 (K562)	GI50 (KM12)	GI50 (M14)	GI50 (MOLT-4)	GI50 (NCI-H226)	GI50 (OVCAR-4)	GI50 (RXF 393)	GI50 (SF-295)	GI50 (SF-539)	GI50 (SK-OV-3)	GI50 (UACC-257)	GI50 (UACC-62)	GI50 (UO-31)	GI50 (RPMI-8226)	GI50 (U-251)
O=C(N/N=C(\c1nc2ccc(Cl)cc2nc1O)C(O)c1ccccc1Cl)c1ccncc1 (centres undefined)	> 100 µM (inactive)	> 100 µM (inactive)	> 100 µM	> 100 µM (inactive)	> 100 µM (inactive)	> 100 µM (inactive)	> 100 µM (inactive)	> 100 µM (inactive)	> 100 µM (inactive)	> 100 µM (inactive)	> 100 µM (inactive)	> 100 µM (inactive)	> 100 µM (inactive)	> 100 µM (inactive)	> 100 µM (inactive)	> 100 µM (inactive)	> 100 µM (inactive)	–	–
Cc1nc(-c2cccnc2)sc1C(=O)/C=C/c1cccc([N+](=O)[O-])c1	> 100 µM (inactive)	> 100 µM (inactive)	> 100 µM	> 100 µM (inactive)	> 100 µM (inactive)	> 100 µM (inactive)	–	> 100 µM (inactive)	> 100 µM (inactive)	–	> 100 µM (inactive)	> 100 µM (inactive)	> 100 µM (inactive)	> 100 µM (inactive)	> 100 µM (inactive)	> 100 µM (inactive)	> 100 µM (inactive)	> 100 µM (inactive)	> 100 µM (inactive)
Nc1ccc(S(=O)(=O)c2ccc(NC(=O)c3cccnc3)cc2)cc1	> 100 µM (inactive)	> 100 µM (inactive)	> 100 µM	> 100 µM (inactive)	78 µM (inactive)	> 100 µM (inactive)	> 100 µM (inactive)	57.5 µM (inactive)	> 100 µM (inactive)	62.4 µM (inactive)	56.4 µM (inactive)	> 100 µM (inactive)	–	> 100 µM (inactive)	53 µM (inactive)	> 100 µM (inactive)	> 100 µM (inactive)	36.6 µM (inactive)	> 100 µM (inactive)
C=CCCC(OCOCCOC)c1cc(C)c(O[Si](C)(C)C(C)(C)C)c(C)c1 (centres undefined)	16.4 µM (inactive)	–	13.2 µM	–	8.05 µM (inactive)	13.5 µM (inactive)	34.4 µM (inactive)	4.4 µM (inactive)	13.5 µM (inactive)	–	13.8 µM (inactive)	17.3 µM (inactive)	18.4 µM (inactive)	25.4 µM (inactive)	4.58 µM (inactive)	10.7 µM (inactive)	11.7 µM (inactive)	4.81 µM (inactive)	14.3 µM (inactive)
CN(C)CCC1(C2=CCCC2)CC/C(=C\c2ccccc2Cl)C1=O (centres undefined)	13.8 µM (inactive)	–	5.85 µM	6.44 µM (inactive)	3.75 µM (inactive)	12.9 µM (inactive)	12.1 µM (inactive)	4.57 µM (inactive)	–	11.9 µM (inactive)	4.49 µM (inactive)	14.6 µM (inactive)	15.2 µM (inactive)	–	14.8 µM (inactive)	14.6 µM (inactive)	7.24 µM (inactive)	18.3 µM (inactive)	12.6 µM (inactive)
BrC/C=C/C[P+](c1ccccc1)(c1ccccc1)c1ccccc1	7.87 µM (inactive)	–	–	–	2.43 µM (inactive)	4.29 µM (inactive)	13.7 µM (inactive)	> 100 µM (inactive)	–	41.1 µM (inactive)	–	13.1 µM (inactive)	1.52 µM (inactive)	86.5 µM (inactive)	8.57 µM (inactive)	9.04 µM (inactive)	34.2 µM (inactive)	0.927 µM (active)	24 µM (inactive)
Nc1n[n+](-c2ccccc2)no1	39.6 µM (inactive)	24.7 µM (inactive)	28.1 µM	42.5 µM (inactive)	4.85 µM (inactive)	10.1 µM (inactive)	32.7 µM (inactive)	13.3 µM (inactive)	> 100 µM (inactive)	> 100 µM (inactive)	–	33.8 µM (inactive)	51.4 µM (inactive)	> 100 µM (inactive)	25.9 µM (inactive)	5.37 µM (inactive)	83.4 µM (inactive)	26.6 µM (inactive)	51.4 µM (inactive)
CCOC(=O)[C@@]12CCC(C1=O)[C@](C)(O)C[C@@H]2c1ccccc1	50.4 µM (inactive)	39.2 µM (inactive)	25.8 µM	29.2 µM (inactive)	30.4 µM (inactive)	31.8 µM (inactive)	27.7 µM (inactive)	30.5 µM (inactive)	> 100 µM (inactive)	> 100 µM (inactive)	29.3 µM (inactive)	32.7 µM (inactive)	32.7 µM (inactive)	29.1 µM (inactive)	75 µM (inactive)	29.7 µM (inactive)	> 100 µM (inactive)	–	33.7 µM (inactive)
